Data from paper PMC7464559, “Synthesis, Optimization, Antifungal Activity, Selectivity, and CYP51 Binding of New 2-Aryl-3-azolyl-1-indolyl-propan-2-ols” (Pharmaceuticals, 2020).
Converted amounts (≈) assume the structure as drawn.

Key:
C. albicans CA98001 = experiment: Anti-Candida in vitro assay (Alamar Blue), C. albicans CA98001; assay type: cell-based; settings: Candida albicans, CA98001, 24 h, MIC = IC80, 24 h at 37 °C, mean of triplicate
Protocol: (§1) Test fungal strains were obtained from the American Type Culture Collection (ATCC) or were clinical isolates from the Laboratory of Parasitology and Medical Mycology, Centre Hospitalier Universitaire (CHU) of Nantes. The strains were maintained on Sabouraud agar slants and were subcultured 24 h before used. The activity of the target compounds 8a–g and 11a–m was determined by the method previously described. Briefly, molecules were diluted in RPMI 1640 medium supplemented with 0.165 M morpholinopropanesulphonic acid (Sigma-Aldrich, Saint-Quentin Fallavier, France), 2% glucose, and antibiotics. Candida suspensions were prepared in RPMI 1640 medium (Sigma-Aldrich, Saint-Quentin Fallavier, France) adjusted to give a final concentration of 10^3 cells/mL, and a 96-well microplate (Nunc, D. Dutscher, Brumath, France) was seeded with 100 µL. Each concentration of molecules (100 µL) to be tested was added (in triplicate) and plates were incubated at 37 °C for 24 h. The cellular viability was evaluated on the Fluorolite 1000 (Dynatech, France) with an excitation at 550 nm and an emission at 590 nm after a 4 h incubation with 10 µL of Alamar Blue®. […] MIC was expressed as the mean of the triplicate values. KTC and FLC were used as standards.

[1] = system: ATCC2091 Candida albicans strain; experiment: Anti-Candida in vitro assay, ATCC2091; assay type: cell-based; settings: Candida albicans ATCC2091, mean of triplicate; read-out: MIC (IC80) ATCC2091
Protocol: as §1

[2] = system: CA98002 (Candida albicans); experiment: Anti-Candida in vitro assay, CA98002; assay type: cell-based; settings: Candida albicans CA98002, mean of triplicate; read-out: MIC (IC80) CA98002
Protocol: as §1

[3] = system: CA98005 (Candida albicans); experiment: Anti-Candida in vitro assay, CA98005; assay type: cell-based; settings: Candida albicans CA98005, mean of triplicate; read-out: MIC (IC80) CA98005
Protocol: as §1

[4] = system: ATCC6258 Candida krusei strain; experiment: Anti-Candida in vitro assay, ATCC6258; assay type: cell-based; settings: Pichia kudriavzevii; Candida krusei ATCC6258, mean of triplicate; read-out: MIC (IC80) ATCC6258
Protocol: as §1

CK98002 (Candida krusei) = experiment: Anti-Candida in vitro assay, CK98002; assay type: cell-based; settings: Pichia kudriavzevii; Candida krusei CK98002, mean of triplicate; read-out: MIC (IC80) CK98002
Protocol: as §1

CK98003 (Candida krusei) = experiment: Anti-Candida in vitro assay, CK98003; assay type: cell-based; settings: Pichia kudriavzevii; Candida krusei CK98003, mean of triplicate; read-out: MIC (IC80) CK98003
Protocol: as §1

[5] = system: CL98001 (Candida lusitaniae); experiment: Anti-Candida in vitro assay, CL98001; assay type: cell-based; settings: Clavispora lusitaniae; Candida lusitaniae CL98001, mean of triplicate; read-out: MIC (IC80) CL98001
Protocol: as §1

[6] = system: ATCC90018 Candida parapsilosis strain; experiment: Anti-Candida in vitro assay, ATCC90018; assay type: cell-based; settings: Lodderomyces parapsilosis; Candida parapsilosis ATCC90018, mean of triplicate; read-out: MIC (IC80) ATCC90018
Protocol: as §1

MRC5 toxicity assay = assay type: cell-based, human; settings: human, MRC-5 human fetal lung fibroblast cells, MRC-5 cells, 96-h incubation, mean of triplicate; read-out: Cytotoxicity IC50 on MRC-5 cells
Protocol: The cytotoxicity of compounds was studied with human fibroblast (MRC5). Cells were grown in RPMI 1640 medium (Sigma-Aldrich, Saint-Quentin Fallavier, France) supplemented with 10% fetal bovin serum (Sigma–Aldrich). Drugs were tested at three concentrations (100, 10, and 1 µM) in triplicate. After a 96-h incubation time, cytotoxicity was measured on the Fluorolite 1000 (Dynatech, Guyancourt, France) after a 4-h incubation time with Uptiblue® (Interchim, Montluçon, France). Inhibitory concentration 50 is a mean of triplicate values. A toxicity index was determined as follow: IC50 against MRC5/Geometric mean of the MICs against Candida spp..

MIC (C. albicans CA98001) [µg/mL]	MIC [1] [µg/mL]	MIC [2] [µg/mL]	MIC [3] [µg/mL]	MIC [4] [µg/mL]	MIC (CK98002 (Candida krusei)) [µg/mL]	MIC (CK98003 (Candida krusei)) [µg/mL]	MIC [5] [µg/mL]	MIC [6] [µg/mL]	melting point [°C]	Compound	IC50 at 96 h (MRC5 toxicity assay) [µM]
0.024 (≈ 0.068 µM)	0.258 (≈ 0.731 µM)	0.261 (≈ 0.74 µM)	0.222 (≈ 0.629 µM)	2.43 (≈ 6.9 µM)	12.7 (≈ 35.9 µM)	2.43 (≈ 6.9 µM)	0.208 (≈ 0.59 µM)	2.05 (≈ 5.8 µM)	188 to 189	OC(Cn1cncn1)(Cn1ccc2ccccc21)c1ccc(Cl)cc1 (stereo not shown) [Compound 11b, 2-(4-Chlorophenyl)-3-(1H-indol-1-yl)-1-(1H-1,2,4-triazol-1-yl)propan-2-ol]	> 100
0.027 (≈ 0.068 µM)	0.477 (≈ 1.2 µM)	0.338 (≈ 0.851 µM)	0.286 (≈ 0.72 µM)	1.51 (≈ 3.8 µM)	2.46 (≈ 6.2 µM)	2.5 (≈ 6.3 µM)	0.215 (≈ 0.541 µM)	2.03 (≈ 5.1 µM)	186 to 187	OC(Cn1cncn1)(Cn1ccc2ccccc21)c1ccc(Br)cc1 (stereo not shown) [Compound 11c, 2-(4-Bromophenyl)-3-(1H-indol-1-yl)-1-(1H-1,2,4-triazol-1-yl)propan-2-ol]	38
0.022 (≈ 0.0597 µM)	0.199 (≈ 0.54 µM)	0.302 (≈ 0.82 µM)	0.516 (≈ 1.4 µM)	17.6 (≈ 47.7 µM)	7.59 (≈ 20.6 µM)	5.45 (≈ 14.8 µM)	0.232 (≈ 0.63 µM)	2.5 (≈ 6.8 µM)	125 to 126	Cc1cc2ccccc2n1CC(O)(Cn1cncn1)c1ccc(F)cc1F (stereo not shown) [Compound 11f, 2-(2,4-Difluorophenyl)-3-(2-methyl-1H-indol-1-yl)-1-(1H-1,2,4-triazol-1-yl)propan-2-ol]	~190
0.009 (≈ 0.0233 µM)	0.247 (≈ 0.639 µM)	0.233 (≈ 0.603 µM)	0.749 (≈ 1.94 µM)	19.1 (≈ 49.4 µM)	10.6 (≈ 27.3 µM)	3.07 (≈ 7.94 µM)	0.199 (≈ 0.515 µM)	2 (≈ 5.18 µM)	165 to 168	OC(Cn1cncn1)(Cn1ccc2ccccc21)c1ccc(C(F)(F)F)cc1 (stereo not shown) [Compound 8f, 1-(1H-Indol-1-yl)-3-(1,2,4-1H-triazol-1-yl)-2-(4-trifluoromethyl-phenyl)propan-2-ol]	76
0.03 (≈ 0.0895 µM)	0.131 (≈ 0.391 µM)	0.205 (≈ 0.611 µM)	0.148 (≈ 0.441 µM)	> 33.5	12.8 (≈ 38 µM)	28.6 (≈ 85.3 µM)	0.231 (≈ 0.689 µM)	2.11 (≈ 6.29 µM)	166 to 167	OC(Cn1ccnc1)(Cn1ccc2ccccc21)c1ccc(F)cc1 (stereo not shown) [Compound 8a, 2-(4-Fluorophenyl)-1-(1H-imidazol-1-yl)-3-(1H-indol-1-yl)propan-2-ol]	50
0.02 (≈ 0.0505 µM)	0.357 (≈ 0.901 µM)	0.25 (≈ 0.631 µM)	0.21 (≈ 0.53 µM)	> 39.6	5.08 (≈ 12.8 µM)	36.6 (≈ 92.3 µM)	0.25 (≈ 0.631 µM)	1.84 (≈ 4.64 µM)	134 to 135	OC(Cn1ccnc1)(Cn1ccc2ccccc21)c1ccc(Br)cc1 (stereo not shown) [Compound 8c, 2-(4-Bromophenyl)-1-(1H-imidazol-1-yl)-3-(1H-indol-1-yl)propan-2-ol]	31
0.007 (≈ 0.0174 µM)	0.026 (≈ 0.0648 µM)	0.044 (≈ 0.11 µM)	0.03 (≈ 0.0748 µM)	3.01 (≈ 7.5 µM)	0.803 (≈ 2 µM)	1.69 (≈ 4.2 µM)	0.025 (≈ 0.0623 µM)	0.245 (≈ 0.611 µM)	161 to 162	Cc1cn(CC(O)(Cn2cncn2)c2ccc(Cl)cc2Cl)c2ccccc12 (stereo not shown) [Compound 11i, 2-(2,4-Dichlorophenyl)-3-(3-methyl-1H-indol-1-yl)-1-(1H-1,2,4-triazol-1-yl)propan-2-ol]	19
> 100	–	–	–	–	–	–	–	–	159 to 161	OC(Cn1nccn1)(Cn1ccc2ccccc21)c1ccc(Cl)cc1Cl (stereo not shown) [Compound 11m, 2-(2,4-Dichlorophenyl)-3-(1H-indol-1-yl)-1-(2H-1,2,3-triazol-2-yl)propan-2-ol]	–
